Laboratory results published in US20030032003A1, “IN VIVO SELECTION” (priority 2000, published 2003).

Experiments:
[1] = tested on: Hprt +/+ mice; experiment: Biochemical analysis of mouse serum after 6TG; assay type: in vivo; conditions: 25 mg/kg single i.p., serum 14 days after treatment
Procedure: Serum biochemistry parameters analyzed included blood urea nitrogen (BUN), aspartate amino transferase (AST), alanine amino transferase (ALT), creatine kinase (CK), and alkaline phosphatase (AP). The analyses were performed at Tufts University Veterinary Medical Diagnosis Laboratory with the chemical analyser Hitachi 747. Blood was collected from the posterior vena cava of Hprt deficient mice that were either treated with water, 25, 500, or 720 mg/kg 6TG i.p. and wildtype mice administered 25 mg/kg 6TG.
Hprt wildtype mice were treated with the sublethal dose of 25 mg/kg 6TG and Hprt mutant mice were treated with the sublethal doses of […] 6TG. Serum samples taken 14 days after treatment were evaluated for the levels of blood urea nitrogen (BUN), aspartate amino transferase (AST), alanine amino transferase (ALT), creatine kinase (CK) and alkaline phosphatase (AP). Elevated BUN is associated with dehydratation and/or renal insufficiency. Elevated activities of ALT and AST are characteristic for liver damage particularly necrosis, cirrhosis and/or hepatitis and also muscle trauma or myocardial infarction or myositis. Elevated AP is associated mostly with increased bone marrow metabolism and also with hapatocellular damage during hepatitis. CK is predominantly located in muscles and therefore its increased activities are consequence of muscular trauma, myocardial infarction or myopathic disorders.

[2] = tested on: T cells from Lesch Nyhan syndrome patients and Hprt deficient brothers; conditions: cited from earlier work

Q: For `Nc1nc(S)c2[nH]cnc2n1` [6TG, 2-amino-6-merkaptopurine], which ALT [1] is on record?
A: Its ALT is 197 ± 66.8 u/l.

Q: And the AP [1]?
A: The AP was 50.0 ± 33.4 u/l.

Q: What about the AST [1] of the same molecule?
A: Its AST is 256.3 ± 73.9 u/l.

Q: What about the BUN [1] of the same molecule?
A: The BUN was 45.0 ± 24.6 mg/dL.

Q: What about the CK [1] of the same molecule?
A: The CK was 73.3 ± 13.9 u/l.

Q: What about the “6TG resistance higher than cells from normal individuals” value ([2]; T cells from Lesch Nyhan syndrome patients) of the same molecule?
A: Its value is 300 fold.

Q: What about the “6TG resistance greater than normal individuals” value ([2]; T cells of Hprt deficient brothers without signs of the disease) of the same molecule?
A: The value was 10 fold.
